Reference: PubChem BioAssay (NCI)
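These data come from cells grown in 96-well plates and exposed to compound for 48 hours at five concentrations. TGI denotes the concentration required for complete inhibition of growth.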

How the values were obtained:
Experiment in all cases: NCI tumour cell line growth inhibition, 48 h
[1] = test system: UACC-62 melanoma
[2] = test system: A498 renal
[3] = test system: RXF 393 renal
[4] = test system: LOX IMVI melanoma
[5] = test system: NCI-H522 lung
[6] = test system: SN12C renal
[7] = test system: UACC-257 melanoma
[8] = test system: MCF7 breast
[9] = test system: SW-620 colon
[10] = test system: OVCAR-4 ovarian
[11] = test system: MOLT-4 leukemia
[12] = test system: NCI-H460 lung
[13] = test system: KM12 colon
[14] = test system: UO-31 renal
[15] = test system: SK-OV-3 ovarian
[16] = test system: MDA-N
[17] = test system: IGROV1 ovarian
[18] = test system: SK-MEL-2 melanoma
[19] = test system: OVCAR-3 ovarian
[20] = test system: MDA-MB-435
[21] = test system: SF-295 CNS
[22] = test system: HL-60(TB) leukemia
[23] = test system: OVCAR-8 ovarian
[24] = test system: TK-10 renal
[25] = test system: HCT-15 colon
[26] = test system: NCI/ADR-RES ovarian
[27] = test system: CCRF-CEM leukemia
[28] = test system: HCC-2998 colon
[29] = test system: NCI-H226 lung
[30] = test system: HS 578T breast
[31] = test system: K-562 leukemia
[32] = test system: MDA-MB-231 breast
[33] = test system: HOP-62 NSCLC
[34] = test system: SK-MEL-28 melanoma
[35] = test system: NCI-H23 lung
[36] = test system: SF-539 CNS
[37] = test system: OVCAR-5 ovarian
[38] = test system: BT-549 breast
[39] = test system: COLO 205 colon
[40] = test system: U251 CNS
[41] = test system: SF-268 CNS
[42] = test system: CAKI-1 renal
[43] = test system: SNB-75 CNS
[44] = test system: SK-MEL-5 melanoma
[45] = test system: HT29 colon
[46] = test system: A549 NSCLC
[47] = test system: EKVX NSCLC
[48] = test system: HCT-116 colon
[49] = test system: PC-3 prostate
[50] = test system: RPMI-8226 leukemia
[51] = test system: SNB-19 CNS
[52] = test system: ACHN renal
[53] = test system: DU-145 prostate
[54] = test system: HOP-92 NSCLC
[55] = test system: M14 melanoma
[56] = test system: 786-0 renal
[57] = test system: MALME-3M melanoma
[58] = test system: SR leukemia
[59] = test system: T-47D breast

Measured: TGI

C=C1C(=O)CC2C(=O)C(C)(O)CC/C=C(\C)C(=O)CC12 (stereo not given)
> 44.1 µM: [31]
21.1 µM: [14]
> 63.6 µM: [23]
> 55.7 µM: [20]
59 µM: [19]
35.5 µM: [38]
23.5 µM: [27]
27.1 µM: [57]
> 58.2 µM: [10]
> 55.1 µM: [58]
83 µM: [49]
36.6 µM: [8]
> 55.6 µM: [34]
27.4 µM: [39]
55.5 µM: [7]
17.1 µM: [5] | [11]
37.5 µM: [17]
8.87 µM: [22]
82.9 µM: [50]
> 34.2 µM: [9]
34.4 µM: [24]
> 82.9 µM: [18]
35.4 µM: [4]
37.7 µM: [25]
> 76.1 µM: [41]
27.3 µM: [52]
> 77.3 µM: [29]
40.3 µM: [3]
74.7 µM: [32]
29.5 µM: [6]
37.1 µM: [16]
7.98 µM: [42]
23 µM: [48]
> 64.9 µM: [45]
31 µM: [55]
91.8 µM: [1]
> 57.3 µM: [54]
43.5 µM: [30]
45.7 µM: [35]
42.2 µM: [53]
47.2 µM: [37]
59.8 µM: [36]
53.9 µM: [47]
35.6 µM: [44] | [56]
not listed: [59]
> 100 µM: all other assays above

NCCN=C(Nc1ccccc1)Nc1ccccc1
not listed: [2] | [37] | [52] | [54] | [59]
> 100 µM: all other assays above

CC1CCOc2ccc(cc2)C=Nc2ccc(cc2)CCc2ccc(cc2)N=Cc2ccc(cc2)OCC1 (stereo not given)
77.3 µM: [43]
not listed: [15] | [22] | [24] | [59]
> 100 µM: all other assays above

NCCSc1nc2ccccc2c(=O)n1-c1ccccc1
65.5 µM: [54]
90.7 µM: [22]
57.1 µM: [51]
not listed: [3] | [11] | [12] | [30] | [41] | [50] | [53]
> 100 µM: all other assays above

CN(C)c1ccc(C2SCC(=O)N2NS(=O)(=O)c2cccc(C(=O)O)c2)cc1 (stereo not given)
31 µM: [56]
32.6 µM: [23]
not listed: [2] | [10] | [26] | [58]
> 100 µM: all other assays above

N#C/C(=C\n1ccc(=O)[nH]c1=S)C(N)=O
0.673 µM: [19]
not listed: [24] | [38]
> 100 µM: all other assays above

COC(=O)C1=CC(=O)OC1(OO)c1ccccc1 (stereo not given)
20.4 µM: [22]
51.1 µM: [27]
not listed: [2] | [30] | [33] | [41] | [50]
> 100 µM: all other assays above
